Assay results: the supplement of paper PMC5908809

How the values were obtained:
[1] = system: normal NK cells expanded with K562-aAPC; assay: percent inhibition of viability; higher = more inhibition; conditions: 72 h, IL-2 2.5 ng/mL
Protocol: (§1)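 Drug sensitivity and resistance testing on K562-aAPC-expanded normal NK cells: 5 concentrations (10-fold steps over a 10,000-fold range), 72 h at 37 °C, viability by CellTiter-Glo normalised to DMSO and benzethonium chloride controls; DSS from the fitted curve.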

[2] = system: DERL-7 (IL-2 2.5 ng/mL); assay: as above; conditions: 72 h
[3] = system: IMC-1 (IL-2 20 ng/mL); assay: as above; conditions: 72 h
[4] = system: KAI3 (IL-2 2.5 ng/mL); assay: as above; conditions: 72 h
[5] = system: KHYG-1 (IL-2 2.5 ng/mL); assay: as above; conditions: 72 h
[6] = system: NK-92 (IL-2 2.5 ng/mL); assay: as above; conditions: 72 h
[7] = system: NK-YS (IL-2 2.5 ng/mL); assay: as above; conditions: 72 h
[8] = system: NKL (IL-2 2.5 ng/mL); assay: as above; conditions: 72 h
[9] = system: SNK-6 (IL-2 2.5 ng/mL); assay: as above; conditions: 72 h
[10] = system: YT (IL-2 2.5 ng/mL); assay: as above; conditions: 72 h
[11] = system: normal primary NK cells, pool 1 (3 donors) (IL-2 2.5 ng/mL); assay: as above; conditions: 72 h
[12] = system: normal primary NK cells, pool 1 (3 donors), resting (IL-2 0 ng/mL); assay: as above; conditions: 72 h
[13] = system: normal primary NK cells, pool 2 (3 donors) (IL-2 2.5 ng/mL); assay: as above; conditions: 72 h
[14] = system: normal primary NK cells, pool 3 (3 donors) (IL-2 2.5 ng/mL); assay: as above; conditions: 72 h
[15] = system: normal NK cells expanded with K562-aAPC; assay: drug sensitivity score (DSS) (DSS units); higher = more sensitive; extreme values may be limits of the assay; conditions: 72 h; IL-2 2.5 ng/mL
Protocol: as §1

[16] = system: DERL-7 (IL-2 2.5 ng/mL); assay: as above; conditions: 72 h
[17] = system: IMC-1 (IL-2 20 ng/mL); assay: as above; conditions: 72 h
[18] = system: KAI3 (IL-2 2.5 ng/mL); assay: as above; conditions: 72 h
[19] = system: KHYG-1 (IL-2 2.5 ng/mL); assay: as above; conditions: 72 h
[20] = system: NK-92 (IL-2 2.5 ng/mL); assay: as above; conditions: 72 h
[21] = system: NK-YS (IL-2 2.5 ng/mL); assay: as above; conditions: 72 h
[22] = system: NKL (IL-2 2.5 ng/mL); assay: as above; conditions: 72 h
[23] = system: SNK-6 (IL-2 2.5 ng/mL); assay: as above; conditions: 72 h
[24] = system: YT (IL-2 2.5 ng/mL); assay: as above; conditions: 72 h
[25] = system: normal primary NK cells, pool 1 (3 donors) (IL-2 2.5 ng/mL); assay: as above; conditions: 72 h
[26] = system: normal primary NK cells, pool 1 (3 donors), resting (IL-2 0 ng/mL); assay: as above; conditions: 72 h
[27] = system: normal primary NK cells, pool 2 (3 donors) (IL-2 2.5 ng/mL); assay: as above; conditions: 72 h
[28] = system: normal primary NK cells, pool 3 (3 donors) (IL-2 2.5 ng/mL); assay: as above; conditions: 72 h

Nc1nc(NC2CC2)cc(-c2cccc(Cl)c2Cl)n1 [TH588] (max concentration tested 25000 nM)
percent inhibition of viability [%]
Conditions | 2.5 nM | 25 nM | 250 nM | 2500 nM | 25000 nM
[1] | -9.36 | -5.78 | -3.43 | 4.8 | 54.4
[2] | -0.31 | 1.28 | 1.11 | 0.06 | 97.7
[3] | -9.26 | 1.24 | 2.13 | 7.29 | 96.8
[4] | 0.95 | -6.22 | 2.89 | 42 | 64.7
[5] | -2.9 | -3.16 | 5.7 | 58.7 | 107
[6] | -1.92 | -6.94 | 2.79 | 72.5 | 101
[7] | 1.83 | -0.35 | 11.3 | 66.7 | 80.4
[8] | -9.98 | -13.7 | 2.66 | 55.4 | 98.6
[9] | 0.31 | -17.3 | 9.99 | 71.7 | 81.9
[10] | -5.04 | -2.09 | 4.62 | 56.5 | 101
[11] | -0.99 | 16 | 3.84 | 5.63 | 25.9
[12] | -2.99 | 16.5 | 4.87 | 14.2 | 27.3
[13] | -12 | 6.63 | 10.1 | 10.4 | 25.7
[14] | -2.82 | 4 | 7.93 | 2.77 | 13.5

Conditions | drug sensitivity score
[15] | 3.67
[16] | 5.47
[17] | 6.5
[18] | 8.66
[19] | 12.6
[20] | 14.2
[21] | 13.8
[22] | 12.1
[23] | 14.5
[24] | 12.3
[25] | 1.81
[26] | 2.68
[27] | 2.06
[28] | 0.02

Nc1ccn([C@@H]2O[C@H](CO)[C@@H](O)C2(F)F)c(=O)n1 [Gemcitabine] (max concentration tested 1000 nM)
percent inhibition of viability [%]
Conditions | 0.1 nM | 1 nM | 10 nM | 100 nM | 1000 nM
[1] | 1.65 | 34.8 | 55.6 | 74.6 | 88.2
[2] | -4.73 | -12.3 | 44.9 | 99.7 | 99.8
[3] | -7.53 | 2 | 99.1 | 101 | 101
[4] | -18.3 | 3.34 | 79.8 | 98.3 | 101
[5] | 2.22 | 12.5 | 101 | 105 | 105
[6] | -6.25 | 12.2 | 92.2 | 104 | 104
[7] | -3.23 | -1.72 | 87.7 | 97.1 | 101
[8] | -10.6 | 68.9 | 102 | 106 | 104
[9] | 18.4 | 13.8 | 57.7 | 94.6 | 100
[10] | 2.42 | -2.18 | 20.1 | 78.2 | 65
[11] | -2.78 | -14 | 4.7 | -1.17 | 26.4
[12] | -12.2 | -40.4 | -21.2 | -27.6 | 23.4
[13] | -12.2 | -6.97 | 19.6 | 14.7 | 29.7
[14] | -9.85 | -6.72 | 16.8 | 12.6 | 38

Conditions | drug sensitivity score
[15] | 24.5
[16] | 23.7
[17] | 30.6
[18] | 27.6
[19] | 32.6
[20] | 31
[21] | 28.4
[22] | 38.4
[23] | 25.1
[24] | 17.4
[25] | 0.96
[26] | 0.38
[27] | 3.97
[28] | 3.49
